One assay concerns the target T1, Caspase-3 (Homo sapiens, UniProt P42574).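 Further: Dose-response selectivity test against caspase-3 for candidate inhibitors of sentrin-specific proteases (SENPs).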
T1 sequence (P42574 whole entry): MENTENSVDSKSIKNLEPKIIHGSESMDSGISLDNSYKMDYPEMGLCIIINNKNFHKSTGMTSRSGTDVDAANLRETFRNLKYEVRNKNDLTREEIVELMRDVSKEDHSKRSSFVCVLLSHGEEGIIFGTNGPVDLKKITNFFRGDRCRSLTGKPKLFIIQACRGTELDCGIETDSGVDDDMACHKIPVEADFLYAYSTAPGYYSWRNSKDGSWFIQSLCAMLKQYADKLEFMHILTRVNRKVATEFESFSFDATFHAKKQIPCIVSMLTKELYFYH
Type of assay: functional.

For assay [1], the target named is Leucine-rich repeat serine/threonine-protein kinase 2 (Homo sapiens, UniProt Q5S007). Type of assay: functional.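 Further: value from a broad kinome-wide panel profiling study in which LRRK2 was one of the kinases tested.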
Another assay concerns the target T2, Insulin-degrading enzyme (Homo sapiens, UniProt P14735).
T2 sequence (P14735 whole entry): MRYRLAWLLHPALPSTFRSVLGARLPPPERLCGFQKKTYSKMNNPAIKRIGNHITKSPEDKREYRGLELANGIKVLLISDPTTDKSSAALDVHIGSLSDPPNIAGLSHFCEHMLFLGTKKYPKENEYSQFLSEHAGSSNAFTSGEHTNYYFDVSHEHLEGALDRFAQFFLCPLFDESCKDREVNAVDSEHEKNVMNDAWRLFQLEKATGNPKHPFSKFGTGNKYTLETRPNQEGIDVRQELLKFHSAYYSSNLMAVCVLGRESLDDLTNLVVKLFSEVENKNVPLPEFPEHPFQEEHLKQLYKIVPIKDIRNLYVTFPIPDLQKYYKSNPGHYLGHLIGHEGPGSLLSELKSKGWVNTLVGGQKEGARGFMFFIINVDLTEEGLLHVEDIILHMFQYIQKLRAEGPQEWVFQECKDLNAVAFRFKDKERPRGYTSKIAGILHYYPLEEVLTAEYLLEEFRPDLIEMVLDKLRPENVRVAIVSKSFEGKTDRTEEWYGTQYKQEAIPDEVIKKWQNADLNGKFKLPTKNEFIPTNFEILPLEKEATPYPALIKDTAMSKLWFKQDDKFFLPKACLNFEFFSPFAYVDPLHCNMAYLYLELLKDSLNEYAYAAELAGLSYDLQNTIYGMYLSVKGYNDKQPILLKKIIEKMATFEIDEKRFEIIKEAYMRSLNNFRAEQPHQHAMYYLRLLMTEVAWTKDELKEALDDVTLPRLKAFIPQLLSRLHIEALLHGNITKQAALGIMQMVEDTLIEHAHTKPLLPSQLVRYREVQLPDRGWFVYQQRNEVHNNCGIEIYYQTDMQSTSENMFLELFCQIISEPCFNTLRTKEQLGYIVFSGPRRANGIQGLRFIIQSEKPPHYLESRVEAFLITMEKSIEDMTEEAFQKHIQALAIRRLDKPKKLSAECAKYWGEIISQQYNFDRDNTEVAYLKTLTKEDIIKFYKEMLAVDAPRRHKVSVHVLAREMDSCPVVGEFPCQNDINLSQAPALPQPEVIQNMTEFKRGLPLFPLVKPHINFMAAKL
In words: cellular IDE activation of Abeta substrate cleavage – fluorescence polarization, HEK cells, dose response (AID 588439). Type of assay: functional, cell-based. (In general: Polarisation of emitted light reports the rotation of a fluorescent probe.)

Assay [2] concerns the target Mitogen-activated protein kinase 1 (Homo sapiens, UniProt P28482). In kind it is functional.
The target of assay [3] is Tyrosine-protein kinase ITK/TSK (Homo sapiens, UniProt Q08881). Type of assay: functional.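 Further: affinity for ITK measured as one member of a broad kinase panel profiling binding across the kinome.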
Assay [4] concerns the target MAP kinase-interacting serine/threonine-protein kinase 2 (Homo sapiens, UniProt Q9HBH9). In kind it is functional.
Assay [5] concerns the target Homeodomain-interacting protein kinase 2 (Homo sapiens, UniProt Q9H2X6). In kind it is functional.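 Further: measured within a kinome-wide kinase profiling panel, HIPK2 being one panel member.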
Assay [6] has as its target Dual specificity tyrosine-phosphorylation-regulated kinase 4 (Homo sapiens, UniProt Q9NR20). In kind it is functional.
Assay [7] concerns the target Mitogen-activated protein kinase kinase kinase kinase 5 (Homo sapiens, UniProt Q9Y4K4). In kind it is functional.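 Further: measured as one member of a kinome-spanning kinase panel.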
Assay [8] concerns the target Mast/stem cell growth factor receptor Kit (Homo sapiens, UniProt P10721). In kind it is functional.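 Further: KIT entry within a kinase panel assay.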
Assay [9] concerns the target Tyrosine-protein kinase Fer (Homo sapiens, UniProt P16591). In kind it is functional.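 Further: FER tested as one member of a kinome panel.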
Assay [10] addresses Homeodomain-interacting protein kinase 4 (Homo sapiens, UniProt Q8NE63). In kind it is functional.
For assay [11], the target named is Maternal embryonic leucine zipper kinase (Homo sapiens, UniProt Q14680). Type of assay: functional.
Assay [12] has as its target Megakaryocyte-associated tyrosine-protein kinase (Homo sapiens, UniProt P42679). In kind it is functional.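 Further: affinity measured as one member of a kinase panel (Navigating the Kinome) against MATK.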
For assay [13], the target named is Testis-specific serine/threonine-protein kinase 2 (Homo sapiens, UniProt Q96PF2). Type of assay: functional.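 Further: part of the Navigating the Kinome panel, target entry STK22B.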
Assay [14] has as its target Serine/threonine-protein kinase DCLK1 (Homo sapiens, UniProt O15075). In kind it is functional.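 Further: affinity for DCLK1 (listed as DCAMKL1) measured as one member of a kinome-wide kinase profiling panel.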

The structures appear in SMILES notation. The source made the active and inactive calls. A value given as a limit tells only on which side of the number the result lay.

The values below come from ChEMBL document CHEMBL1201862, “PubChem BioAssay data set” (2004).

Tyrosine-protein kinase Fer, sequence (P16591 whole entry): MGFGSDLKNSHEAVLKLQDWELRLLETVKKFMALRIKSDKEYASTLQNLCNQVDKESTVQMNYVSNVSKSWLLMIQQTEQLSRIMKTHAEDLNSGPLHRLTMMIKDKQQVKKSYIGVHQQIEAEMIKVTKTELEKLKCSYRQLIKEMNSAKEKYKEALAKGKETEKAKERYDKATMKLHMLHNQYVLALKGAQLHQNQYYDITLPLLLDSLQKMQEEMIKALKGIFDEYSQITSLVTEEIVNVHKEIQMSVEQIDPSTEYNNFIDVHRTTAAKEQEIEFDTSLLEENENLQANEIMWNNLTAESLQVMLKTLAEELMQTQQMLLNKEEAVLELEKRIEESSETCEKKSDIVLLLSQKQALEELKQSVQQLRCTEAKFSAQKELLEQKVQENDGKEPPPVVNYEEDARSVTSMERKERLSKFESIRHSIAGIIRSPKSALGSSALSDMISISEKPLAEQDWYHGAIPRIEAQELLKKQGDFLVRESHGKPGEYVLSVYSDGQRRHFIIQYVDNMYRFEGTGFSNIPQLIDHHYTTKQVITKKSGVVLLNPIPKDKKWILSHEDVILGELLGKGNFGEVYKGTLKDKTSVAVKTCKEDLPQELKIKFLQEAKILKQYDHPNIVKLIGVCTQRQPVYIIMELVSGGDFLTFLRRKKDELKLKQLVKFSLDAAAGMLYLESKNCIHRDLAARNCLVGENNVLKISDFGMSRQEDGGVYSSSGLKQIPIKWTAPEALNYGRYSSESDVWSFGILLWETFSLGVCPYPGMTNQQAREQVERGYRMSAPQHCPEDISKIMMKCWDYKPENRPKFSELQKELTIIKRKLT
Maternal embryonic leucine zipper kinase, sequence (Q14680 whole entry): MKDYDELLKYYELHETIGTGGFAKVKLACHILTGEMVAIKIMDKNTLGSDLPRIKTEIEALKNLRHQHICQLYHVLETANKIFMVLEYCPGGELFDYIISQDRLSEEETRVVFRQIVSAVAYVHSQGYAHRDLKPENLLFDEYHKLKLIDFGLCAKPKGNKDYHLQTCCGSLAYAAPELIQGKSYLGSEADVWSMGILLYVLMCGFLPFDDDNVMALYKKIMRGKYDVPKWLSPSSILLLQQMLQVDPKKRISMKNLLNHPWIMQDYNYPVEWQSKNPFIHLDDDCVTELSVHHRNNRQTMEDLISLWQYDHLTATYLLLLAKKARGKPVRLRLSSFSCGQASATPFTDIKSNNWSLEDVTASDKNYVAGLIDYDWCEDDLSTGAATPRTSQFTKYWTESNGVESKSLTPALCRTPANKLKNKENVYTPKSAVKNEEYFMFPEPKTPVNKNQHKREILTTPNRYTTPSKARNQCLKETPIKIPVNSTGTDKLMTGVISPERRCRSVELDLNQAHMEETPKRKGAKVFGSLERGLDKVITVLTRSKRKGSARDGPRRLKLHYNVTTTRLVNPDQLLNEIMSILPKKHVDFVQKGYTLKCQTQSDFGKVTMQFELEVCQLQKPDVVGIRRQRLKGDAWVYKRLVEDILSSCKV
Homeodomain-interacting protein kinase 2, sequence (Q9H2X6 whole entry): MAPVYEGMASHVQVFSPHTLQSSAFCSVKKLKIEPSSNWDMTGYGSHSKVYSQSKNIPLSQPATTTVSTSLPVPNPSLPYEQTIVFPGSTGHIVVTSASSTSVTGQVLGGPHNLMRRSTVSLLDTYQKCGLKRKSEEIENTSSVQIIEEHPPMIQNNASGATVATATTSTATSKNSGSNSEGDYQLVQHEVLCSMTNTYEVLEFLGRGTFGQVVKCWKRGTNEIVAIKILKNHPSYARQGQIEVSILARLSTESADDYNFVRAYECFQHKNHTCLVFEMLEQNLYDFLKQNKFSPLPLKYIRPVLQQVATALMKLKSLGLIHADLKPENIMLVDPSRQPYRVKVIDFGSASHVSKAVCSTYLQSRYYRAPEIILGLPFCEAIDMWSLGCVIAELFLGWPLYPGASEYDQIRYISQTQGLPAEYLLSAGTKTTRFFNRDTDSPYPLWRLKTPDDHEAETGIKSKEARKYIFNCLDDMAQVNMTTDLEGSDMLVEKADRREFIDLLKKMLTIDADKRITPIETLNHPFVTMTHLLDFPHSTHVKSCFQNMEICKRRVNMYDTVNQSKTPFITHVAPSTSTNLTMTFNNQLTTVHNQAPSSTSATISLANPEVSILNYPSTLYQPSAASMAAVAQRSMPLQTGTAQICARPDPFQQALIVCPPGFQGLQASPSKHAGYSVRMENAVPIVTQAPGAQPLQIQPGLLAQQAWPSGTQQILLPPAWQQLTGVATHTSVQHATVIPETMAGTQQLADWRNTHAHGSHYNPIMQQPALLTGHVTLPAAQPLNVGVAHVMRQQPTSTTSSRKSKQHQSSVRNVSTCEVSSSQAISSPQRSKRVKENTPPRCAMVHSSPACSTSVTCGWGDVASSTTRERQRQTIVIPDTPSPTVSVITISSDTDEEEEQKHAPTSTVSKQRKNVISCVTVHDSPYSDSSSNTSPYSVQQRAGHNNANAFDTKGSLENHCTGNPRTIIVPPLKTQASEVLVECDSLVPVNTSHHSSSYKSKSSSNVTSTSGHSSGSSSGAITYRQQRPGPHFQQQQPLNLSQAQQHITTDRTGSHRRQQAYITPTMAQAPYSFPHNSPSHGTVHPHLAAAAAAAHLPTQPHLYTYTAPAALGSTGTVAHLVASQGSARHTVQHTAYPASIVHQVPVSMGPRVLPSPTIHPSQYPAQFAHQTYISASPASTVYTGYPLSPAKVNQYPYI
Dual specificity tyrosine-phosphorylation-regulated kinase 4, sequence (Q9NR20 whole entry): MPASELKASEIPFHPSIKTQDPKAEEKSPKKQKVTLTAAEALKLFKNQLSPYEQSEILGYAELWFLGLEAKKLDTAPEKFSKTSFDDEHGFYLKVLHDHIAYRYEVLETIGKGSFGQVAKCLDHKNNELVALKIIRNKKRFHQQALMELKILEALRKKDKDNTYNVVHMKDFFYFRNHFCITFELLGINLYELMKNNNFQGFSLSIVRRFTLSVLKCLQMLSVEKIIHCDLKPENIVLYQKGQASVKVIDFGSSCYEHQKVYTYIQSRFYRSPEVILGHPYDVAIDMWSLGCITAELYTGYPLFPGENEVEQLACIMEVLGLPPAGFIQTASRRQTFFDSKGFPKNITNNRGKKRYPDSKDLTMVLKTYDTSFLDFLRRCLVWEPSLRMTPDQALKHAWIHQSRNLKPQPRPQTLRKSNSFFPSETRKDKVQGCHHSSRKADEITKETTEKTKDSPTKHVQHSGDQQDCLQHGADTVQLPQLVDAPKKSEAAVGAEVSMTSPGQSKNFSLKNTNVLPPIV
Tyrosine-protein kinase ITK/TSK, sequence (Q08881 whole entry): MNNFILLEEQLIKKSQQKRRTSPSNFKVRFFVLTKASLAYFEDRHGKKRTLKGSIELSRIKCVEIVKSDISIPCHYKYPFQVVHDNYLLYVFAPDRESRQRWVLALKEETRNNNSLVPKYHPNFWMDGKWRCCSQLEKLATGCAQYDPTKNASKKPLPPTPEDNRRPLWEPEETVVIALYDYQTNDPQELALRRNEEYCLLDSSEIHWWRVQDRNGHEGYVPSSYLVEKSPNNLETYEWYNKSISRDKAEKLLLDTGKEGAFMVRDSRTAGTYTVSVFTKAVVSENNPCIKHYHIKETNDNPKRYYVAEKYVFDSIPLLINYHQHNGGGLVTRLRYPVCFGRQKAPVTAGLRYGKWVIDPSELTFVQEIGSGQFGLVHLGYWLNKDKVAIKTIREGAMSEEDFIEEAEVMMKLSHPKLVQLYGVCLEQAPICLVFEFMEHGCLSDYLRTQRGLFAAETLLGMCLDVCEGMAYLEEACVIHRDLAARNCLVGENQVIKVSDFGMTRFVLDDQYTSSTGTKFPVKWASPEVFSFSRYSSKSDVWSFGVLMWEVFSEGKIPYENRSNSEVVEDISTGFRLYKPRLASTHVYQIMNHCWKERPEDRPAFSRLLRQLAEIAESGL
Mitogen-activated protein kinase kinase kinase kinase 5, sequence (Q9Y4K4 whole entry): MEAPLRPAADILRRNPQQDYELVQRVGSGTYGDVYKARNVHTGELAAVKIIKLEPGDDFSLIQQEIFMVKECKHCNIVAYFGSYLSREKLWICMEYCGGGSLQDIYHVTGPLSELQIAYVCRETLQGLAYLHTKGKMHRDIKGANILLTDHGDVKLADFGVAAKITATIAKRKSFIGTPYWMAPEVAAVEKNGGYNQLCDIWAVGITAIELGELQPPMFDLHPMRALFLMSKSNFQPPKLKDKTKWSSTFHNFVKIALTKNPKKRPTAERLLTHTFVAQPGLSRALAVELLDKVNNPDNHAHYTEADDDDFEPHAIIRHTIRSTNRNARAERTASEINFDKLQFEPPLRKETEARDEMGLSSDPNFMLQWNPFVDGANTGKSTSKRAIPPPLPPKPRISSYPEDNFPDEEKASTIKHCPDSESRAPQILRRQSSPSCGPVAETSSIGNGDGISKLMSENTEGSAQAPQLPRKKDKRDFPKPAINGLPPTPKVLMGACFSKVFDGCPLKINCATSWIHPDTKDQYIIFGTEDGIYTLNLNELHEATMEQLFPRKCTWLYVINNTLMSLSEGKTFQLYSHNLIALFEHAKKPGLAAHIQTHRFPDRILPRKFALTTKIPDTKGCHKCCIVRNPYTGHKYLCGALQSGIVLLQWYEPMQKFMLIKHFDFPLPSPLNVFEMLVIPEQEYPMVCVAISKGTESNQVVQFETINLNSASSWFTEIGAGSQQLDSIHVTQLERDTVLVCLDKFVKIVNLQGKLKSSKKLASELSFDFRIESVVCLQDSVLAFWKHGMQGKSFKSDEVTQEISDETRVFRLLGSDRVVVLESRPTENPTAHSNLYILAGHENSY
Mitogen-activated protein kinase 1, sequence (P28482 whole entry): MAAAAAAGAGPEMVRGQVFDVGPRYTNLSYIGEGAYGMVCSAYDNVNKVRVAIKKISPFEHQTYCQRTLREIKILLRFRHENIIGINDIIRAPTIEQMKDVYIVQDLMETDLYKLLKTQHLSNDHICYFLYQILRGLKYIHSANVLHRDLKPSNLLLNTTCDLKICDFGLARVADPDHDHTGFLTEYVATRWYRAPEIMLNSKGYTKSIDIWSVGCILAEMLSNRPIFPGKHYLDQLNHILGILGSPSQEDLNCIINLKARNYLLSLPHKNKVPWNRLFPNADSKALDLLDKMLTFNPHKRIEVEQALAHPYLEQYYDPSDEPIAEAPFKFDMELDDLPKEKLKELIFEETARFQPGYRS

`O=C(COC(=O)c1ccc([N+](=O)[O-])s1)Nc1ccc(F)cc1`: the concentration for half-maximal inhibition (IC50) on Caspase-3 is 8.43 µM (active).
For the molecule `COc1cccc(CNC(=O)c2cnc(-c3ccncc3)nc2)c1`, the Ki in [1] was > 2.51 µM (inactive).
As for `CCN(CC)CCCC(C)n1c2nc(=O)[nH]c(=O)c-2nc2cc(Cl)ccc21` (stereo not given), the EC50 at Insulin-degrading enzyme was > 54.7 µM (inactive).
For `OC1CCC(Nc2nc(Cl)cc(-c3c[nH]c4ncccc34)n2)CC1` (stereo not given), the inhibition constant (Ki) was 0.0501 µM (active) in [2]; 0.398 µM (active) in [3]; 0.0398 µM (active) in assay [4]; 0.0316 µM (active) in assay [5]; 3.16 µM (active) in assay [6]; 0.0794 µM (active) in assay [7]. The Ki is > 1.26 µM (inactive) in assay [8]; 0.2 µM (active) in assay [9]; 0.398 µM (active) in assay [10]; 0.00501 µM (active) in assay [11]; > 2 µM (inactive) in assay [12]; > 1.58 µM (inactive) in [13]. In assay [14], the Ki is > 10 µM (inactive). Besides, the negative-log Ki (pKi) is given as 7.3 in [2]; 6.4 in [3]; 7.4 in assay [4]; 7.5 in [5]; 5.5 in assay [6]; 7.1 in assay [7]. In addition, the pKi came out at 6.7 in assay [9], 6.4 in assay [10] and 8.3 in assay [11].

One may read the IC50 as the concentration needed to halve the response being measured. For orientation: Ki means a measure of affinity in units of concentration, obtained from inhibition or displacement. The EC50 is the concentration at which the effect is half-maximal. In general, pKi refers to −log10 of the Ki, conventionally taken in molar units. A low value points to a high Ki.
